Experimental data: patent US9458120B2, “Phenoxypropanol derivative and pharmaceutical composition including the same” (KOREA INSTITUTE OF SCIENCE AND TECHNOLOGY, priority 2011, dated 2016)
Values belong to the molecule of their own block, whether it stands above or below them.

Legend:
TREK-1 channel = target: T1, TREK-1 channel (Rattus norvegicus, UniProt Q920B6); test: Assay for TREK channel inhibition activity (whole cell patch clamp recording, COS7 cell transfected with GFP-rTREK-1); type: cell-based; conditions: COS7 cells, GFP-rTREK-1, whole-cell patch clamp; for inhibition at 101 µM: COS-7, Table 3 (value ± spread), 101 μM [sic], read-out: block % at 101 μM; for inhibition at 10 µM: COS-7, Table 2, read-out: block % at 10 μM
T1 construct: expressed in transfected cells; host or cells: COS7 (Korean Cell Line Bank), transient transfection with Effectene
T1 sequence (Q920B6 1-426): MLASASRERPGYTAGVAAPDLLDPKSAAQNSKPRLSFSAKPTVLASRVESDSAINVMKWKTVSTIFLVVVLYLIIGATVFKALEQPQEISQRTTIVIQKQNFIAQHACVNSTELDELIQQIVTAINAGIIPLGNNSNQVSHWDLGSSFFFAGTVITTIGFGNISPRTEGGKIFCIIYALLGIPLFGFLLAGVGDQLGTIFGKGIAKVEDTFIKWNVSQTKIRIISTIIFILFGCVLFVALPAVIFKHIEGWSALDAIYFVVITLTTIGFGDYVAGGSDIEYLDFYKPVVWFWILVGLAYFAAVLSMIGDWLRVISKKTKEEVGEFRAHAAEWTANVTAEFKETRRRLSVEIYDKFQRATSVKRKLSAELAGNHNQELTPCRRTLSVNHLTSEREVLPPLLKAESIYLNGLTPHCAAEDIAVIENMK
Procedure: The inhibition activity of the compound of the present invention against TREK-1 channel was measured by measuring the physiological activity by whole cell patch clamp recording.
COS7 cell (obtained from Korean Cell Line Bank (KCLB)) was transfected with GFP-rTREK-1 gene (accession number: AY727922) using an Effectene transfection reagent (Qiagen), and cultured for 24 hours in an incubator at 37° C. As a culture medium, Dulbecco's modified Eagle's medium (DMEM, GIBCO products from Invitrogen) containing 10% by weight of fetal bovine serum (FBS) and 1% by weight of penicillin/streptomycin (5000 unit/ml) was used. The cells thus prepared were adhered on a cover glass, which was placed on a chamber, and then a recording solution (150 mM NaCl, 10 mM HEPES, 10 mM KCl, 2 mM CaCl2, 5.5 mM D-Glucose, all reagents were purchased from Sigma) was applied. A glass microelectrode was filled with an intracellular solution prepared with the composition of 150 mM KCl, 5 mM EGTA, 10 mM HEPES, 0.5 mM CaCl2, 1 mM MgCl2, 4 mM Mg-ATP, and 0.3 mM Na-GTP (all reagents were purchased from Sigma), followed by whole-cell patch clamp recording. The voltage was fixed at −70 mV using a Digidata 1322A data acquisition system (Molecular Devices) and an Axopatch 200A amplifier (Axon Instruments), and the current generated by applying a voltage ramp from −100 mV to +100 mV for 1 second was measured using a Clampex9.2 program. A difference between the current values measured at +100 mV and −100 mV was defined as a current in the above experiment. The currents before and after blocker treatment were measured so as to determine the inhibition activity.
Block %=100−(current after blocker treatment/current before blocker treatment)*100

[1] = target: α1G T-type calcium channel (Homo sapiens, UniProt O43497); test: Assay for T-type calcium channel inhibition activity (FDSS6000 calcium imaging, KCl activation); type: cell-based; conditions: 75 s pre-treatment then KCl 75 mM, HEK293 cells expressing α1G T-type calcium channel and Kir2.1
Procedure: At 12-24 hours before the assay for T-type calcium channel activity, cells of HEK293 cell line (α1G cell line: KCTC 10519BP, GenBank, Korea Research Institute of Bioscience and Biotechnology) which stably express α1G T-type calcium channel and Kir2.1, were sub-cultured in a poly-L-lysine (0.05 mg/ml) treated 96-well plate with the density of 4×10^4 per a well using a 96-well cell dispenser (Titertek). On the day of assay, the 96-well plate to which the cells were attached were washed three times with a HEPES buffer solution (unit mM: 150 NaCl, 5 KCl, 1 MgCl2, 2 CaCl2, 10 HEPES, 10 glucose, pH 7.4) using a 96-well plate automatic washing device (Bio Tek), and then reacted with a HEPES buffer solution containing 5 μM fluo-3/AM and 0.001% (w/v) Pluronic F-127 at room temperature for 1 hour, to label with fluorescent dye, and then further washed twice with the HEPES buffer solution. Thereafter, at 10 minutes before the measurement using a FDSS6000 device, a washing with a HEPES buffer solution containing 10 mM CaCl2 was conducted once more, and the final volume was adjusted to 81 μl. Besides the above 96-well plate containing the cells, additional two 96-well drug plates were provided, in which the 96-well plates contained KCl (final concentration: 75 mM) for activating T-type calcium channel and a blocker drug, respectively.
Since most of cell-based HTS (High throughput screening) devices are equipped with a liquid application system for drug injection, but have no liquid sucking system, the blocker drug to be tested and KCl were respectively provided at the five-times higher concentration in 10 mM CaCl2 HEPES buffer solution at the amount of 27 μl, diluted five-times at the final cell plate volume of 135 μl, and then used in this test. In this Experimental Example, therefore, FDSS6000 (Hamamatsu Photonics) was used as an alternative to HTS device.
Specific FDSS6000 measurement conditions are as follows: After recording the reference value of 20 seconds, the change of intracellular calcium concentration which induced by pre-treatment of the drug (the prepared […]) for 75 seconds followed by administration of KCl was measured, in which the percentage (%) inhibition effect of the test drug was determined, through estimating the area of ratio value of 340/380 in the control without treatment of the test drug as 100%. As a reference drug, 10 μM of mibefradil was always used.
For accurate calcium-imagination, the light sources of 4 xenon lamps in FDSS6000 were radiated to make the cells exposed selectively to the excitation wavelength (340 nm and 380 nm) by computer-controlled filter wheel. Data was obtained at interval of each 1.23 second. The emitter fluorescence light inflow through a 515 nm long-pass filter was obtained as an average 340/380 ratio value for each well in the 96-wells by a cooled CCD camera and digital fluorescence analyzer in the device. All image data and analysis were obtained by using a FDSS6000-exclusive program provided by Hamamatsu Photonics, as described above.

Chain of α1G T-type calcium channel (O43497 whole entry): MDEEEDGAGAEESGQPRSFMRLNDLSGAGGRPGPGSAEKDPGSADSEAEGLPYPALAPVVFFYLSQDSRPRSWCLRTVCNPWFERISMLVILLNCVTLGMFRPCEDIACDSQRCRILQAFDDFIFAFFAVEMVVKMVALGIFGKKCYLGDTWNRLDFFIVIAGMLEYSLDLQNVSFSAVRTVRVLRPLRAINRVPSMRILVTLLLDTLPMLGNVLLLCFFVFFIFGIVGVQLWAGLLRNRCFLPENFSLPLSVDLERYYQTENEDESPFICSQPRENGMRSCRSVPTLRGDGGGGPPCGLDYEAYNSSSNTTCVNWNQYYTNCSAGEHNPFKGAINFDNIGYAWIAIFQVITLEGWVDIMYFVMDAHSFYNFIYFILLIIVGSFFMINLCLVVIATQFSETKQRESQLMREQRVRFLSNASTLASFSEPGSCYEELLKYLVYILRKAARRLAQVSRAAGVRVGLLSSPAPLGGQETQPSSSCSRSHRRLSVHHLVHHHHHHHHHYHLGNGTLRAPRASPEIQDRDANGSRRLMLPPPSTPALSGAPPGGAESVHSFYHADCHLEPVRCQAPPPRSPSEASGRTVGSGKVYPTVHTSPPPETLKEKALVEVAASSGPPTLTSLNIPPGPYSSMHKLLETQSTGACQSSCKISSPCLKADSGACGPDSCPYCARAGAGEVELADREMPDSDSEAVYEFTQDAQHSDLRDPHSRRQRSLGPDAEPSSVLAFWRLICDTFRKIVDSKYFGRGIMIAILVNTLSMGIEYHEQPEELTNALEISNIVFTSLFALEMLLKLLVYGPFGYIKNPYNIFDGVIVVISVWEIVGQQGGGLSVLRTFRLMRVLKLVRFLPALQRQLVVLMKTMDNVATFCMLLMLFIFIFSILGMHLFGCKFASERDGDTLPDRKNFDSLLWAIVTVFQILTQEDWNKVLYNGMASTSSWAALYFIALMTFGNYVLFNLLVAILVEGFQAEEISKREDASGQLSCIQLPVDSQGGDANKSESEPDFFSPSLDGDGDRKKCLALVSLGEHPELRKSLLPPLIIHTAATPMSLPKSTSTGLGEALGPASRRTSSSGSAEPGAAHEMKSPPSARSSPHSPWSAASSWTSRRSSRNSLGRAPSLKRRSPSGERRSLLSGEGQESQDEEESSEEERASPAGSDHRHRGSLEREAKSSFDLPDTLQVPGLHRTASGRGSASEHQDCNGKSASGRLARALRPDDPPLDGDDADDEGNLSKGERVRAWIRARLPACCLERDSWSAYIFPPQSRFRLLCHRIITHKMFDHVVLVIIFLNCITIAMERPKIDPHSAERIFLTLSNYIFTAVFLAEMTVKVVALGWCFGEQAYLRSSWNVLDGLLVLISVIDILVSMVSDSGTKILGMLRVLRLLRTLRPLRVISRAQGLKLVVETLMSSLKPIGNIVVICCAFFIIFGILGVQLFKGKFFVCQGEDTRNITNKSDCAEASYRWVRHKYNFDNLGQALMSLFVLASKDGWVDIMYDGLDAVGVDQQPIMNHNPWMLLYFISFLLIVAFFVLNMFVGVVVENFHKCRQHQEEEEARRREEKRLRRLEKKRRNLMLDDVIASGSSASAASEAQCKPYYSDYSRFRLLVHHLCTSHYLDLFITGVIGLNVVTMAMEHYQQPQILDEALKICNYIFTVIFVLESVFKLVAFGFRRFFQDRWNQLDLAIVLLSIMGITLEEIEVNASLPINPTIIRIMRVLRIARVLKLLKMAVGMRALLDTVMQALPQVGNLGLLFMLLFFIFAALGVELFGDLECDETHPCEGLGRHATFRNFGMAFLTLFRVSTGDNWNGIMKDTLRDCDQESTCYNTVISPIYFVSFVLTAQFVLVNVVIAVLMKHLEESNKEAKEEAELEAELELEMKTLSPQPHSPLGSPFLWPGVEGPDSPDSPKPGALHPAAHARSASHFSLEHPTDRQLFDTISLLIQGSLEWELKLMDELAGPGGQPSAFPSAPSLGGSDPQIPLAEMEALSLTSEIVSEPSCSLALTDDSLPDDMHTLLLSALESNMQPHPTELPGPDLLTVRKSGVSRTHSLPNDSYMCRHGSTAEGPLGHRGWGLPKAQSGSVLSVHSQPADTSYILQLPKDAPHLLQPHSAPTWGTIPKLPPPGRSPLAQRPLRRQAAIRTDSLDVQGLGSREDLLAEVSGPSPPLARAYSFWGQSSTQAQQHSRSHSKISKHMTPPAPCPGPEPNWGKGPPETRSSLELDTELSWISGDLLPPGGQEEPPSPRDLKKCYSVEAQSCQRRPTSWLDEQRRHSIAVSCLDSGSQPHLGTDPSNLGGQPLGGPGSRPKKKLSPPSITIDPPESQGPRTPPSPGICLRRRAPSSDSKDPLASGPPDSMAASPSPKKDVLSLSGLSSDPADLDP

SMILES: O=C(CN1CCN(C[C@@H](O)COc2ccccc2)CC1)NCc1ccccc1 [KKRE10202, (R)-N-benzyl-2-(4-(2-hydroxy-3-phenoxypropyl)piperazin-1-yl)acetamide]
inhibition at 101 µM (TREK-1 channel): 0.84 ± 1.76%
inhibition [1]: 21.4%

SMILES: O[C@H](COc1ccc(C(F)(F)F)cc1)CN1CCC(N2CCCCC2)CC1 [KKRE10188, (S)-1-(1,4′-bipiperidin-1′-yl)-3-(4-(trifluoromethyl)phenoxy)propan-2-ol]
inhibition at 101 µM (TREK-1 channel): 55.6 ± 0.23%
inhibition [1]: 5.73%

SMILES: Cc1ccc(OC[C@H](O)CN2CCN(CC(=O)NCc3ccc(C(F)(F)F)cc3)CC2)cc1 [KKRE10200, (R)-2-(4-(2-hydroxy-3-(p-tolyloxy)propyl)piperazin-1-yl)-N-(4-(trifluoromethyl)benzyl)acetamide]
inhibition at 10 µM (TREK-1 channel): 30.9%
inhibition at 101 µM (TREK-1 channel): 30.9 ± 3.86%
inhibition [1]: 43.7%

SMILES: O[C@H](COc1ccc(C(F)(F)F)cc1)CN1CCC(N2CCOCC2)CC1 [KKRE10187, (S)-1-(4-morpholinopiperidin-1-yl)-3-(4-(trifluoromethyl)phenoxy)propan-2-ol]
inhibition at 101 µM (TREK-1 channel): 49.2 ± 6.75%
inhibition [1]: 10.1%

SMILES: Cc1ccc(CNC(=O)CN2CCN(C[C@@H](O)COc3ccccc3)CC2)cc1 [KKRE10204, (R)-2-(4-(2-hydroxy-3-phenoxypropyl)piperazin-1-yl)-N-(4-methylbenzyl)acetamide]
inhibition at 10 µM (TREK-1 channel): 57.5%
inhibition at 101 µM (TREK-1 channel): 16.3 ± 12.9%
inhibition [1]: 12.3%

SMILES: O[C@@H](COc1ccc(C(F)(F)F)cc1)CN1CCC(N2CCCCC2)CC1 [KKRE10183, (R)-1-(1,4′-bipiperidin-1′-yl)-3-(4-(trifluoromethyl)phenoxy)propan-2-ol]
inhibition at 101 µM (TREK-1 channel): 36.4 ± 7.38%
inhibition [1]: 12%

SMILES: O[C@@H](COc1ccc(F)cc1)CN1CCC(O)(c2ccccc2)CC1 [KKRE10179]
inhibition at 101 µM (TREK-1 channel): 19.9 ± 4.25%
inhibition [1]: 16%

SMILES: O[C@@H](COc1ccc(C(F)(F)F)cc1)CN1CCN(Cc2nccn2Cc2ccccc2)CC1 [KKRE10153, (R)-1-(4-((1-benzyl-1H-imidazol-2-yl)methyl)piperazin-1-yl)-3-(4-(trifluoromethyl)phenoxy)propan-2-ol]
inhibition at 10 µM (TREK-1 channel): 52.1%
inhibition at 101 µM (TREK-1 channel): 52.1 ± 7.24%
inhibition [1]: 46.9%

SMILES: O[C@@H](COc1ccc(C(F)(F)F)cc1)CN1CCC(O)(c2ccccc2)CC1 [KKRE10186, (R)-1-(2-hydroxy-3-(4-(trifluoromethyl)phenoxy)propyl)-4-phenylpiperidin-4-ol]
inhibition at 101 µM (TREK-1 channel): 54 ± 12.1%
inhibition [1]: 46.1%

SMILES: O[C@@H](COc1ccc(F)cc1)CN1CCC(F)(F)CC1 [KKRE10178, (R)-1-(4,4-difluoropiperidin-1-yl)-3-(4-fluorophenoxy)propan-2-ol]
inhibition at 101 µM (TREK-1 channel): 66 ± 4.05%
inhibition [1]: 37.6%

SMILES: O[C@H](COc1ccc(F)cc1)CN1CCC(N2CCCCC2)CC1 [KKRE10159, (S)-1-(1,4′-bipiperidin-1′-yl)-3-(4-fluorophenoxy)propan-2-ol]
inhibition at 101 µM (TREK-1 channel): 13.4 ± 5.78%
inhibition [1]: 6.37%

SMILES: O[C@@H](COc1ccc(C(F)(F)F)cc1)CN1CCC(N2CCOCC2)CC1 [KKRE10182, (R)-1-(4-morpholinopiperidin-1-yl)-3-(4-(trifluoromethyl)phenoxy)propan-2-ol]
inhibition at 101 µM (TREK-1 channel): 46.6 ± 6.25%
inhibition [1]: 12.5%

More lines, now with the values ahead:

inhibition at 101 µM (TREK-1 channel): 69.8 ± 4.78%
inhibition [1]: 74.7%
SMILES: Cc1ccccc1-n1nc(CNC(=O)CN2CCN(C[C@H](O)COc3ccc(F)cc3)CC2)cc1CC(C)C [KKRE10227, (S)-2-(4-(3-(4-Fluorophenoxy)-2-hydroxypropyl)piperazin-1-yl)-N-((5-isobutyl-1-o-tolyl-1H-pyrazol-3-yl)methyl)acetamide]

inhibition at 101 µM (TREK-1 channel): 37.5 ± 5.31%
inhibition [1]: 77.5%
SMILES: CC(C)Cc1cc(CNC(=O)CN2CCN(C[C@H](O)COc3ccc(F)cc3)CC2)nn1-c1ccccc1 [KKRE10214, (S)-2-(4-(3-(4-Fluorophenoxy)-2-hydroxypropyl)piperazin-1-yl)-N-((5-isobutyl-1-phenyl-1H-pyrazol-3-yl)methyl)acetamide]

inhibition at 101 µM (TREK-1 channel): 45.1 ± 3.6%
inhibition [1]: 77.8%
SMILES: Cc1ccc(F)cc1-n1nc(CNC(=O)CN2CCN(C[C@@H](O)COc3ccc(F)cc3)CC2)cc1CC(C)C [KKRE10224, (R)-N-((1-(5-Fluoro-2-methylphenyl)-5-isobutyl-1H-pyrazol-3-yl)methyl)-2-(4-(3-(4-fluorophenoxy)-2-hydroxypropyl)piperazin-1-yl)acetamide]

inhibition at 101 µM (TREK-1 channel): 83.1 ± 4.99%
inhibition [1]: 68.9%
SMILES: Cc1ccc(F)cc1-n1nc(CNC(=O)CN2CCN(C[C@H](O)COc3ccc(C(F)(F)F)cc3)CC2)cc1CC(C)C [KKRE10221, (S)-N-((1-(5-fluoro-2-methylphenyl)-5-isobutyl-1H-pyrazol-3-yl)methyl)-2-(4-(2-hydroxy-3-(4-(trifluoromethyl)phenoxy)propyl)piperazin-1-yl)acetamide]

inhibition at 101 µM (TREK-1 channel): 55.3 ± 6.53%
inhibition [1]: 79%
SMILES: CC(C)c1cc(CNC(=O)CN2CCN(C[C@@H](O)COc3ccc(C(F)(F)F)cc3)CC2)nn1-c1ccccc1 [KKRE10211, (R)-2-(4-(2-hydroxy-3-(4-(trifluoromethyl)phenoxy)propyl)piperazin-1-yl)-N-((5-isopropyl-1-phenyl-1H-pyrazol-3-yl)methyl)acetamide]

inhibition at 101 µM (TREK-1 channel): 11 ± 2.58%
inhibition [1]: 33.9%
SMILES: Cc1ccc(CNC(=O)CN2CCN(C[C@H](O)COc3ccc(C)cc3)CC2)cc1 [KKRE10199, (S)-2-(4-(2-hydroxy-3-(p-tolyloxy)propyl)piperazin-1-yl)-N-(4-methylbenzyl)acetamide]

inhibition at 101 µM (TREK-1 channel): 4.7 ± 1.04%
inhibition [1]: 26%
SMILES: Cc1ccc(OC[C@H](O)CN2CCN(CC(=O)NCc3ccccc3)CC2)cc1 [KKRE10196, (R)-N-benzyl-2-(4-(2-hydroxy-3-(p-tolyloxy)propyl)piperazin-1-yl)acetamide]

inhibition at 101 µM (TREK-1 channel): 74.1 ± 2.75%
inhibition [1]: 77.6%
SMILES: Cc1ccc(F)cc1-n1nc(CNC(=O)CN2CCN(C[C@H](O)COc3ccc(F)cc3)CC2)cc1CC(C)C [KKRE10229, (S)-N-((1-(5-Fluoro-2-methylphenyl)-5-isobutyl-1H-pyrazol-3-yl)methyl)-2-(4-(3-(4-fluorophenoxy)-2-hydroxypropyl)piperazin-1-yl)acetamide]
